According to ChEMBL document CHEMBL4507279, “Data for DCP probe BI-9627” (2021):

How the values were obtained:
[1] = tested on: Epidermal growth factor receptor (Homo sapiens), P00533 [L861Q]; conditions: Compound concentration 1000.0 nM
[2] = target: Dual specificity tyrosine-phosphorylation-regulated kinase 1B (Homo sapiens) (UniProt Q9Y463); conditions: Compound concentration 1000.0 nM
[3] = target: Tyrosine-protein kinase receptor Tie-1 (Homo sapiens) (UniProt P35590); conditions: Compound concentration 1000.0 nM
[4] = target: Mitogen-activated protein kinase kinase kinase 15 (Homo sapiens) (UniProt Q6ZN16); conditions: Compound concentration 1000.0 nM
[5] = target: Serine/threonine-protein kinase Nek2 (Homo sapiens) (UniProt P51955); conditions: Compound concentration 1000.0 nM
[6] = tested on: Tyrosine-protein kinase ABL1 (Homo sapiens), P00519 [E255K]; conditions: Compound concentration 1000.0 nM
[7] = target: Cyclin-dependent kinase 3 (Homo sapiens) (UniProt Q00526); conditions: Compound concentration 1000.0 nM
[8] = target: Insulin receptor-related protein (Homo sapiens) (UniProt P14616); conditions: Compound concentration 1000.0 nM
[9] = target: Ephrin type-A receptor 2 (Homo sapiens) (UniProt P29317); conditions: Compound concentration 1000.0 nM
[10] = target: Receptor tyrosine-protein kinase erbB-2 (Homo sapiens) (UniProt P04626); conditions: Compound concentration 1000.0 nM
Sequence of Receptor tyrosine-protein kinase erbB-2 (Homo sapiens) (P04626 whole entry): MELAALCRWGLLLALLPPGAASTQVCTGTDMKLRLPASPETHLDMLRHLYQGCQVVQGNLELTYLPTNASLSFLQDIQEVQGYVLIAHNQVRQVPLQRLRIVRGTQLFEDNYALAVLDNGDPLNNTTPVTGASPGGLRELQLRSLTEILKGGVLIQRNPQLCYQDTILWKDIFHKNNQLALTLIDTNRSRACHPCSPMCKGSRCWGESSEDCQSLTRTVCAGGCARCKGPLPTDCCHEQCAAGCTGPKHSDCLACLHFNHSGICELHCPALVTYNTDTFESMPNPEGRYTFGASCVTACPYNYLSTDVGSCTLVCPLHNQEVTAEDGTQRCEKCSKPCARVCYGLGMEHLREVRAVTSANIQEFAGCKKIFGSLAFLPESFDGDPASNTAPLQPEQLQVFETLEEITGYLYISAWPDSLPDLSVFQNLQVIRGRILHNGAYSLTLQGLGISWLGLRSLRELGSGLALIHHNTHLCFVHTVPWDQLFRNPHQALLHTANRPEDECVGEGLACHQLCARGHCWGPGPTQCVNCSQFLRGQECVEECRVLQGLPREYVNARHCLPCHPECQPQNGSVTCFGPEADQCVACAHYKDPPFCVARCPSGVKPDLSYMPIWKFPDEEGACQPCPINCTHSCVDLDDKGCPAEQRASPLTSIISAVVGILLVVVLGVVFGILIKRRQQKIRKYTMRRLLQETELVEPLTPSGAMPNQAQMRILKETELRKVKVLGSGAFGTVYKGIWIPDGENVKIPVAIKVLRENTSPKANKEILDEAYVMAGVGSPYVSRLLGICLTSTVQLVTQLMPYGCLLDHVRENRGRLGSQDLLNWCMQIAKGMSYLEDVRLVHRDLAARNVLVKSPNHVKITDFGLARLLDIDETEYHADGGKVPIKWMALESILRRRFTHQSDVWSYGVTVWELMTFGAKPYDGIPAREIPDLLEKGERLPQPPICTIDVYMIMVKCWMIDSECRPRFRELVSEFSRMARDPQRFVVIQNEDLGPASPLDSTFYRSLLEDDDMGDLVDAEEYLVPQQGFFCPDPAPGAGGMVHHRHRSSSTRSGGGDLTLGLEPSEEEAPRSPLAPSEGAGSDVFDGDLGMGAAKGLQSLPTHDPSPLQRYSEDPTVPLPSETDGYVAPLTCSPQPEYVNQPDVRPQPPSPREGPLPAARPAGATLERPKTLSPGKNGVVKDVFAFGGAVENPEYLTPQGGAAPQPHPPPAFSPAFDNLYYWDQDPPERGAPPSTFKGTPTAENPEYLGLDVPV

[11] = target: Ephrin type-A receptor 3 (Homo sapiens) (UniProt P29320); conditions: Compound concentration 1000.0 nM
[12] = target: Mitogen-activated protein kinase kinase kinase 5 (Homo sapiens) (UniProt Q99683); conditions: Compound concentration 1000.0 nM
[13] = target: Beta-adrenergic receptor kinase 1 (Homo sapiens) (UniProt P25098); conditions: Compound concentration 1000.0 nM
[14] = target: T1, Sodium-dependent dopamine transporter (Homo sapiens, UniProt Q01959); conditions: Compound concentration 10.0 uM
T1 sequence (Q01959 whole entry): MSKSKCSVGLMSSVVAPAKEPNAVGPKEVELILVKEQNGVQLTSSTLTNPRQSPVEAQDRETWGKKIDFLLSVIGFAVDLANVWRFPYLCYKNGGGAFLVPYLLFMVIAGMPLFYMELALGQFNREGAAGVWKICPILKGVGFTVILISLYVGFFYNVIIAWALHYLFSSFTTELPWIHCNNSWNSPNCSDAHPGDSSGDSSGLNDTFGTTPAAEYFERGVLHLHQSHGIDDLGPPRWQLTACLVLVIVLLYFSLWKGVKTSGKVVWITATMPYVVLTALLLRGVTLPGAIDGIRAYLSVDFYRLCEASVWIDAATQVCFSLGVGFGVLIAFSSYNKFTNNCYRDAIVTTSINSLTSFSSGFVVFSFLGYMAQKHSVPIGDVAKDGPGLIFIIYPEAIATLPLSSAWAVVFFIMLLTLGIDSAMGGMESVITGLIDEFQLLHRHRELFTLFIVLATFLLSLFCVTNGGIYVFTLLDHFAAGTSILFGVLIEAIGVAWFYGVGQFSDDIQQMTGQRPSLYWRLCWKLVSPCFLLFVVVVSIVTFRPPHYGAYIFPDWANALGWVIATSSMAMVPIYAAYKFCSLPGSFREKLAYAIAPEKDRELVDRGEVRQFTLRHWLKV

[15] = target: Activin receptor type-2B (Homo sapiens) (UniProt Q13705); conditions: Compound concentration 1000.0 nM
Sequence of Activin receptor type-2B (Homo sapiens) (Q13705 whole entry): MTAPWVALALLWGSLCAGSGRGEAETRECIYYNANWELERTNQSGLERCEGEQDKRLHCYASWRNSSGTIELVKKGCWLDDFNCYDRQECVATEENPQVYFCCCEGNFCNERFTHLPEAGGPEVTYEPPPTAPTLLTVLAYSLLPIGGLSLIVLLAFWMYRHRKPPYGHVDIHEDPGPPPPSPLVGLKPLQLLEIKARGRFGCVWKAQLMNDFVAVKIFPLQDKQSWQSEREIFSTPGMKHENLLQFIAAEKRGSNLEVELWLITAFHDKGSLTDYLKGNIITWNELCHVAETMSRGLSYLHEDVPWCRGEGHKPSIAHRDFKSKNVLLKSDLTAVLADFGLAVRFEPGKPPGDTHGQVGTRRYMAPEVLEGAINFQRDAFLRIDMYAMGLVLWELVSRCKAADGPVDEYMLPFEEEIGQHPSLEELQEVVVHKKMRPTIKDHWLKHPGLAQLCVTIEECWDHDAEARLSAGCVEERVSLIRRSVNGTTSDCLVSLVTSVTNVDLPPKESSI

[16] = target: Serine/threonine-protein kinase 36 (Homo sapiens) (UniProt Q9NRP7); conditions: Compound concentration 1000.0 nM
Sequence of Serine/threonine-protein kinase 36 (Homo sapiens) (Q9NRP7 whole entry, the tested form may be a part): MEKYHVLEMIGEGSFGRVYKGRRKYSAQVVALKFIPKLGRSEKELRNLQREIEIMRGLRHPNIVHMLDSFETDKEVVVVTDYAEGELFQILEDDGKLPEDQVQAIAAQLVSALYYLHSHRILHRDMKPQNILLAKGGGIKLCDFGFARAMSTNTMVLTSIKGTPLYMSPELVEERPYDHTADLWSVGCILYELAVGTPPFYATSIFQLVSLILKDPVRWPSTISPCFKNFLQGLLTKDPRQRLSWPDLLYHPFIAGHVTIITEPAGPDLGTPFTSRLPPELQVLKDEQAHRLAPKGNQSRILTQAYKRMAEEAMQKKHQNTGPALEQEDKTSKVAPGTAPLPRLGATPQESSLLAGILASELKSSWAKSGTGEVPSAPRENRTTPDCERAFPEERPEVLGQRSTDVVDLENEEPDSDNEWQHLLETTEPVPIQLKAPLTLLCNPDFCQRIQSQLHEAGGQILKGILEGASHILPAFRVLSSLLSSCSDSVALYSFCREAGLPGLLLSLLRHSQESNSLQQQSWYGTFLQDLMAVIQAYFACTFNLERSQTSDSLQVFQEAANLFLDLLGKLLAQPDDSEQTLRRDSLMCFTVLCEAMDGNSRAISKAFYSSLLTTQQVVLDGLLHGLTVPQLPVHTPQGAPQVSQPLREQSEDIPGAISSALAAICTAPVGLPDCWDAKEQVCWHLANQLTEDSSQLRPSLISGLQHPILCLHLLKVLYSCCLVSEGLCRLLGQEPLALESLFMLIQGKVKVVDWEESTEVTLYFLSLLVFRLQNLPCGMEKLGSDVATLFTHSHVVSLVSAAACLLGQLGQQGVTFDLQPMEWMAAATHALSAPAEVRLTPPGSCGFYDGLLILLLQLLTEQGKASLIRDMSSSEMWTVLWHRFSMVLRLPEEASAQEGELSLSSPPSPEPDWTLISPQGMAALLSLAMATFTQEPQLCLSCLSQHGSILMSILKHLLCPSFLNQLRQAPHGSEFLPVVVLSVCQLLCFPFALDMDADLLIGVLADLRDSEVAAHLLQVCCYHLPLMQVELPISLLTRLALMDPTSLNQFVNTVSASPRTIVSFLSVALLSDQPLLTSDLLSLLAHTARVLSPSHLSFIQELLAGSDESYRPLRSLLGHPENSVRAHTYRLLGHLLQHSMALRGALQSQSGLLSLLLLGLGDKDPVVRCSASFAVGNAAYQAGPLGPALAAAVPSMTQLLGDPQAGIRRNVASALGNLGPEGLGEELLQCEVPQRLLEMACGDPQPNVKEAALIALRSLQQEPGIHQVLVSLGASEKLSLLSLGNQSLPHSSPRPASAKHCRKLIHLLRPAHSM

[17] = target: Phosphatidylinositol 4-phosphate 3-kinase C2 domain-containing subunit beta (Homo sapiens) (UniProt O00750); conditions: Compound concentration 1000.0 nM
[18] = target: Tyrosine-protein kinase Blk (Homo sapiens) (UniProt P51451); conditions: Compound concentration 1000.0 nM
[19] = target: T2, Muscarinic acetylcholine receptor M2 (Homo sapiens) (UniProt P08172); conditions: Compound concentration 10.0 uM
T2 sequence (whole entry): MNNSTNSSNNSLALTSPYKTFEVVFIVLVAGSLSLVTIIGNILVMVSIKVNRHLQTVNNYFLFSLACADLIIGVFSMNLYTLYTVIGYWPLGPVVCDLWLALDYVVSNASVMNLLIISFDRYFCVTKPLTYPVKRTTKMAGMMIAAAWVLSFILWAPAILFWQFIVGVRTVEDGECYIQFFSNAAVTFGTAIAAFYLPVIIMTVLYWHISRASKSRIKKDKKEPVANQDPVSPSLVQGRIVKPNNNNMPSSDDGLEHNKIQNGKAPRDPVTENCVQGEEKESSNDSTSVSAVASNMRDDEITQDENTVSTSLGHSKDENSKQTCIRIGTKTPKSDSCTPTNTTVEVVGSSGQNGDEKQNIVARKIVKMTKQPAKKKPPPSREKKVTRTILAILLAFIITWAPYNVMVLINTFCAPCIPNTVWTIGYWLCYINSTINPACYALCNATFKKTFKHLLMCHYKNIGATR

[20] = tested on: Epidermal growth factor receptor (Homo sapiens), P00533 [UNDEFINED MUTATION]; conditions: Compound concentration 1000.0 nM
[21] = target: Ribosomal protein S6 kinase alpha-4 (Homo sapiens) (UniProt O75676); conditions: Compound concentration 1000.0 nM
[22] = target: Serine/threonine-protein kinase LATS1 (Homo sapiens) (UniProt O95835); conditions: Compound concentration 1000.0 nM
[23] = target: Calcium/calmodulin-dependent protein kinase type 1B (Homo sapiens) (UniProt Q6P2M8); conditions: Compound concentration 1000.0 nM
Sequence of Calcium/calmodulin-dependent protein kinase type 1B (Homo sapiens) (Q6P2M8 whole entry): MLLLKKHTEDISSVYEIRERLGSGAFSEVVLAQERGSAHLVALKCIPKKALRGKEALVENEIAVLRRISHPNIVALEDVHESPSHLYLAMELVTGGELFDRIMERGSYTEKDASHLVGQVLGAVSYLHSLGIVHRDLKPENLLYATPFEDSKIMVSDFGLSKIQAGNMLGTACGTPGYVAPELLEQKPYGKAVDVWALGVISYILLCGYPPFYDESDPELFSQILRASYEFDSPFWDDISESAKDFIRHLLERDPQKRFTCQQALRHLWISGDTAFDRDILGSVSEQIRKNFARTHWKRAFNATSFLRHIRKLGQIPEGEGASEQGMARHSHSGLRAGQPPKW

[24] = target: Mitogen-activated protein kinase 14 (Homo sapiens) (UniProt Q16539); conditions: Compound concentration 1000.0 nM
Sequence of Mitogen-activated protein kinase 14 (Homo sapiens) (Q16539 whole entry): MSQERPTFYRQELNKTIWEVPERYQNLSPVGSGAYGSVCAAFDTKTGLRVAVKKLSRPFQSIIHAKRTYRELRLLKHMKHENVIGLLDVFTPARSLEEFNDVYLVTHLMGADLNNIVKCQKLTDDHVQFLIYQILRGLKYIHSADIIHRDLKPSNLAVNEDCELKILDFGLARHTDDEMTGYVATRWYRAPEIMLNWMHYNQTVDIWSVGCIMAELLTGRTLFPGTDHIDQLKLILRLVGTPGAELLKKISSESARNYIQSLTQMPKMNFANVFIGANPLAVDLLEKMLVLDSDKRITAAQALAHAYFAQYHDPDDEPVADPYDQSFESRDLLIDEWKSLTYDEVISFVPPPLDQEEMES

[25] = target: Death-associated protein kinase 3 (Homo sapiens) (UniProt O43293); conditions: Compound concentration 1000.0 nM
Sequence of Death-associated protein kinase 3 (Homo sapiens) (O43293 whole entry, looked up): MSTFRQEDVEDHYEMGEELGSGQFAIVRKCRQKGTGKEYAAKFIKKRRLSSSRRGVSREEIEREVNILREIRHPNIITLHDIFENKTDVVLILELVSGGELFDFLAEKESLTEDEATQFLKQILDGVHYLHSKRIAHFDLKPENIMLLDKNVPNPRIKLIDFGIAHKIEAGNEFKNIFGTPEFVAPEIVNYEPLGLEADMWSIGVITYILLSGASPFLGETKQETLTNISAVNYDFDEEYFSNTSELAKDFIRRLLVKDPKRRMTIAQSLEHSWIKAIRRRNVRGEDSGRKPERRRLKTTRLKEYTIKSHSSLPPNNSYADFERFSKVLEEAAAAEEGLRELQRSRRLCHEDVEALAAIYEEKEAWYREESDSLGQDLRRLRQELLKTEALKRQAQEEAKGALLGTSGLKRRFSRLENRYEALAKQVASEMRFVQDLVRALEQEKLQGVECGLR

[26] = target: Serine/threonine-protein kinase D2 (Homo sapiens) (UniProt Q9BZL6); conditions: Compound concentration 1000.0 nM
[27] = target: Ribosomal protein S6 kinase beta-1 (Homo sapiens) (UniProt P23443); conditions: Compound concentration 1000.0 nM
[28] = target: T1, Sodium-dependent dopamine transporter; test: GPCRScan assay: inhibition of DAT; parameters: radioligand conc. used [nm] 3.6 – 16.0, parental cells stable HEK
[29] = tested on: Epidermal growth factor receptor (Homo sapiens), P00533 [G719S]; conditions: Compound concentration 1000.0 nM
[30] = target: Mitogen-activated protein kinase kinase kinase kinase 5 (Homo sapiens) (UniProt Q9Y4K4); conditions: Compound concentration 1000.0 nM
[31] = target: Serine/threonine-protein kinase tousled-like 2 (Homo sapiens) (UniProt Q86UE8); conditions: Compound concentration 1000.0 nM
[32] = target: Serine/threonine-protein kinase RIO3 (Homo sapiens) (UniProt O14730); conditions: Compound concentration 1000.0 nM
[33] = tested on: Hepatocyte growth factor receptor (Homo sapiens), P08581 [Y1235D]; conditions: Compound concentration 1000.0 nM
[34] = target: Serine/threonine-protein kinase PAK 4 (Homo sapiens) (UniProt O96013); conditions: Compound concentration 1000.0 nM
[35] = target: Serine/threonine-protein kinase PLK2 (Homo sapiens) (UniProt Q9NYY3); conditions: Compound concentration 1000.0 nM
[36] = target: Receptor tyrosine-protein kinase erbB-4 (Homo sapiens) (UniProt Q15303); conditions: Compound concentration 1000.0 nM
[37] = target: Cyclin-dependent kinase 11A (Homo sapiens) (UniProt Q9UQ88); conditions: Compound concentration 1000.0 nM
[38] = target: Mitogen-activated protein kinase 9 (Homo sapiens) (UniProt P45984); conditions: Compound concentration 1000.0 nM
[39] = target: Cyclin-dependent kinase 5 (Homo sapiens) (UniProt Q00535); conditions: Compound concentration 1000.0 nM

SMILES	residual activity [1] [%]	residual activity [2] [%]	residual activity [3] [%]	residual activity [4] [%]	residual activity [5] [%]	residual activity [6] [%]	residual activity [7] [%]	residual activity [8] [%]	residual activity [9] [%]	residual activity [10] [%]	residual activity [11] [%]	residual activity [12] [%]	residual activity [13] [%]	inhibition [14] [%]	residual activity [15] [%]	residual activity [16] [%]	residual activity [17] [%]	residual activity [18] [%]	inhibition [19] [%]	residual activity [20] [%]	also measured
CC(=O)N1CCC(c2ccc(C(=O)NC(=N)N)cc2C(F)(F)F)CC1 [BI 9627]	91	45	100	100	100	100	100	100	100	92	100	100	96	77.9	100	100	95	100	23.5	93	residual activity [21]: 100%; residual activity [22]: 72%; residual activity [23]: 100%; residual activity [24]: 100%; residual activity [25]: 100%; residual activity [26]: 100%; residual activity [27]: 100%; Ki ([28]; read-out: Ki): 1520 nM; Ki ([28]; read-out: pKi (converted)): 1580 nM; residual activity [29]: 96%; residual activity [30]: 100%; residual activity [31]: 100%; residual activity [32]: 100%; residual activity [33]: 100%; residual activity [34]: 100%; residual activity [35]: 93%; residual activity [36]: 100%; residual activity [37]: 92%; residual activity [38]: 95%; residual activity [39]: 87%
CC(=O)N1CCC(c2ccc(C(=O)NC3=NCCN3)cc2C(F)(F)F)CC1 [BI 0054]	100	37	82	93	100	82	100	81	94	100	95	100	77	87.3	100	83	50	94	-0.799	100	residual activity [21]: 100%; residual activity [22]: 93%; residual activity [23]: 88%; residual activity [24]: 100%; residual activity [25]: 84%; residual activity [26]: 100%; residual activity [27]: 100%; Ki ([28]; read-out: Ki): 825 nM; Ki ([28]; read-out: pKi (converted)): 794 nM; residual activity [29]: 100%; residual activity [30]: 100%; residual activity [31]: 100%; residual activity [32]: 98%; residual activity [33]: 100%; residual activity [34]: 100%; residual activity [35]: 80%; residual activity [36]: 100%; residual activity [37]: 100%; residual activity [38]: 92%; residual activity [39]: 100%
